What was measured:
Assay in all cases: Cell proliferation assay (Alamar Blue)
Assay type in all cases: cell-based
HEPG2 = settings: Homo sapiens, 144 h; HEPG2 liver cancer cell line; 6 days
Protocol: (§1) 1. Instruments and Materials • Thermo 311 CO2 incubator; Haier biosafety cabinet; Molecular Devices microplate reader; Xiangyi brand L530 desktop low speed centrifuge; Olympus IX51 inverted fluorescence microscope, DMEM, RPMI 1640, MEM, DMEM/F12 1:1 medium, Fetal bovine serum, 0.25% trypsin solution, phosphate buffer (Thermo Fisher Shanghai Co., Ltd.); sigma dimethyl sulfoxide (DMSO), resazurin; 54 commercial tumor cell lines (including 26 liver cancer cell lines). Experimental drugs: compounds 1-12 and active drug Linifanib; chemotherapeutic drug Doxorubicin (HY-15142; Shanghai Qianyuan Biomedical Technology Co., Ltd.).
(§2) 2. Experimental Methods • 2.1 Cultivation of different cell lines • 54 cell lines were cultured in a culture medium containing fetal bovine serum and placed in a 5% CO 2 incubator at 37° C. for incubation. The cells were all grown in an adherent state, and the growth was observed under an inverted microscope, and subculture was performed when the cell confluence rate reached 80%-90%. The proportion and quantity of passage were determined by experimental needs. The ratio of subculture of this cell line was generally 1:2^˜1:3. • 2.2 inhibition effect on the proliferation of different tumor cell lines • Cell test: 54 cell lines in logarithmic growth phase were inoculated in 96-well culture plates at 500^˜1×10^4/well (the optimal seeding density of each cell line was determined in pre-experiment), After incubating at 37° C. for 4 h in a 5% CO2 humidification incubator, added 10 μL of compounds 1-12 or Linifanib to each well, and tested 9 drug concentration gradients for each compound (diluted from the highest concentration of the test by 3.16 times). The solubility of each compound was different at a starting concentration of 30 or 100 μM, respectively. The QC reference compound Doxorubicin was added simultaneously to each cell line test, and the final drug concentrations were 10, 3.16, 1, 0.31, 0.1, 0.03, 0.01, 0.003, and 0.001 μM, respectively. In addition, a positive control group (100% inhibition) and a negative control group (0% inhibition) were set at the same time. The drug group was repeated for 2 wells per concentration, and the positive control group and the negative control group were repeated for 6 wells. After the culture was continued for 6 days in the incubator, AlamarBlue test operation was followed; • AlamarBlue test procedure: Incubated with 10 μL of AlamarBlue reagent per well for 1-4 h, shook for 1-2 min, MD microplate reader EX: 560 nm, EM: 590 nm wavelength to measure fluorescence, recorded the results, calculated the cell inhibition rate of the compound of the invention. Cell inhibition rate (%)=(A0% inhibition−A administration)/(A0% inhibition−A100% inhibition)×100%, and then using the method of nonlinear regression using Graph Pad Prism 5.0 or MATILAB software (usually using four parameters) to graph and obtain a drug dose response curve to obtain an IC50 value of the compound of the present invention acting on a cancer cell line.

JHH7 = settings: 144 h; JHH7 liver cancer cell line; 6 days
Protocol: as §1, §2

HLE = settings: Homo sapiens, 144 h; HLE liver cancer cell line; 6 days
Protocol: as §1, §2

DLD1 = settings: Homo sapiens, DLD-1, 144 h; DLD1 tumor cell line; 6 days
Protocol: as §1, §2

HUH6 = settings: Homo sapiens, HuH-6, 144 h; HUH6 liver cancer cell line; 6 days
Protocol: as §1, §2

SW620 = settings: Homo sapiens, SW-620, 144 h; SW620 tumor cell line; 6 days
Protocol: as §1, §2

SNU387 = settings: Homo sapiens, SNU-387, 144 h; SNU387 liver cancer cell line; 6 days
Protocol: as §1, §2

NCl-H1648 = settings: 144 h; NCl-H1648 tumor cell line; 6 days
Protocol: as §1, §2

SNU423 = settings: Homo sapiens, SNU-423, 144 h; SNU423 liver cancer cell line; 6 days
Protocol: as §1, §2

KASUMI-1 = KASUMI-1 (leukemia cells); for IC50: Homo sapiens, 144 h, 6 days
Protocol: as §1, §2

JHH4 = settings: JHH-4, 144 h; JHH4 liver cancer cell line; 6 days
Protocol: as §1, §2

TE-15 = settings: Homo sapiens, 144 h; TE-15 tumor cell line; 6 days
Protocol: as §1, §2

Li-7 = settings: 144 h; Li-7 liver cancer cell line; 6 days
Protocol: as §1, §2

HT1080 = settings: Homo sapiens, HT-1080, 144 h; HT1080 tumor cell line; 6 days
Protocol: as §1, §2

HT55 = settings: Homo sapiens, 144 h; HT55 tumor cell line; 6 days
Protocol: as §1, §2

HUH7 = settings: Homo sapiens, Huh-7, 144 h; HUH7 liver cancer cell line; 6 days
Protocol: as §1, §2

Alexander cells = settings: 144 h, liver cancer cell line, 6 days
Protocol: as §1, §2

SNU739 = settings: SNU-739, 144 h; SNU739 liver cancer cell line; 6 days
Protocol: as §1, §2

MG63 = settings: Homo sapiens, MG-63, 144 h; MG63 tumor cell line; 6 days
Protocol: as §1, §2

KM12 = settings: Homo sapiens, 144 h; KM12 tumor cell line; 6 days
Protocol: as §1, §2

LC-2-ad = settings: Homo sapiens, 144 h; LC-2-ad tumor cell line; 6 days
Protocol: as §1, §2

22RV1 = settings: Homo sapiens, 144 h; 22RV1 tumor cell line; 6 days
Protocol: as §1, §2

NCl-H1703 = settings: for IC50: 144 h, NCl-H1703 (lung cancer cells), 6 days
Protocol: as §1, §2

K562 = settings: Homo sapiens, 144 h; K562 tumor cell line; 6 days
Protocol: as §1, §2

SMILES | IC50 (HEPG2) [µM] | IC50 (JHH7) [µM] | IC50 (HLE) [µM] | IC50 (DLD1) [µM] | IC50 (HUH6) [µM] | IC50 (SW620) [µM] | IC50 (SNU387) [µM] | IC50 (NCl-H1648) [µM] | IC50 (SNU423) [µM] | IC50 (KASUMI-1) [µM] | IC50 (JHH4) [µM] | IC50 (TE-15) [µM] | IC50 (Li-7) [µM] | IC50 (HT1080) [µM] | IC50 (HT55) [µM] | IC50 (HUH7) [µM] | IC50 (Alexander cells) [µM] | IC50 (SNU739) [µM] | IC50 (MG63) [µM] | IC50 (KM12) [µM] | further results
Cc1ccc(F)c(NC(=O)Nc2ccc(-c3cccc4c3c(N)nn4C(=O)CCCCCCCCCCCNC(=O)C[C@H](N)C(=O)N[C@@H](CCC(=O)N[C@@H](CCC(=O)N[C@@H](CCC(=O)N[C@@H](CCC(=O)N[C@@H](CCC(=O)N[C@@H](CCC(=O)N[C@@H](CCC(=O)N[C@@H](CCC(=O)N[C@@H](CCC(=O)O)C(=O)O)C(=O)O)C(=O)O)C(=O)O)C(=O)O)C(=O)O)C(=O)O)C(=O)O)C(=O)O)cc2)c1 [Compound 9] | 11 | 42.2 | 53.3 | > 100 | 50.3 | 66.7 | > 100 | > 100 | > 100 | 0.23 | > 100 | 88.9 | 49.3 | > 100 | > 100 | 30.3 | > 100 | > 100 | > 100 | 21.8 | IC50 (LC-2-ad): 70.5 µM; IC50 (22RV1): > 100 µM; IC50 (NCl-H1703): 0.33 µM; IC50 (K562): > 100 µM
Cc1ccc(F)c(NC(=O)Nc2ccc(-c3cccc4c3c(N)nn4C(=O)C[C@H](N)C(=O)N[C@@H](CCC(=O)N[C@@H](CCC(=O)N[C@@H](CCC(=O)N[C@@H](CCC(=O)N[C@@H](CCC(=O)N[C@@H](CCC(=O)N[C@@H](CCC(=O)N[C@@H](CCC(=O)N[C@@H](CCC(=O)O)C(=O)O)C(=O)O)C(=O)O)C(=O)O)C(=O)O)C(=O)O)C(=O)O)C(=O)O)C(=O)O)cc2)c1 [Compound 3] | 1.73 | 5.69 | 4.72 | 20.3 | 1.55 | 10.4 | 40.1 | 13.6 | 26.1 | 0.19 | 12.1 | 12.7 | 10.1 | 25.8 | 31.3 | 6.69 | 12.7 | 8.05 | 27.1 | 4.63 | IC50 (LC-2-ad): 22.4 µM; IC50 (22RV1): 10.3 µM; IC50 (NCl-H1703): 0.15 µM; IC50 (K562): 16.9 µM
Cc1ccc(F)c(NC(=O)Nc2ccc(-c3cccc4c3c(N)nn4C(=O)CCCCCNC(=O)C[C@H](N)C(=O)N[C@@H](CCC(=O)N[C@@H](CCC(=O)N[C@@H](CCC(=O)N[C@@H](CCC(=O)O)C(=O)O)C(=O)O)C(=O)O)C(=O)O)cc2)c1 [Compound 5] | 30.8 | 57.8 | 53.4 | > 100 | 72.2 | > 100 | > 100 | > 100 | > 100 | 3.21 | 60.3 | > 100 | 59.1 | > 100 | > 100 | 77.9 | > 100 | > 100 | > 100 | 45.7 | IC50 (LC-2-ad): 51.3 µM; IC50 (22RV1): > 100 µM; IC50 (NCl-H1703): 3.43 µM; IC50 (K562): 56.1 µM
Cc1ccc(F)c(NC(=O)Nc2ccc(-c3cccc4c3c(N)nn4C(=O)CCCCCNC(=O)C[C@H](N)C(=O)O)cc2)c1 [Compound 11] | 11.1 | 40 | 55.2 | 88.4 | 46.4 | 60.3 | > 100 | > 100 | > 100 | 1.21 | 38.7 | > 100 | 35.1 | 94.4 | > 100 | 42.2 | 79.5 | 64 | 77 | 28.5 | IC50 (LC-2-ad): 27.5 µM; IC50 (22RV1): 90.1 µM; IC50 (NCl-H1703): 0.89 µM; IC50 (K562): 33.4 µM
Cc1ccc(F)c(NC(=O)Nc2ccc(-c3cccc4c3c(N)nn4C(=O)CCCCCCCCCCCNC(=O)C[C@H](N)C(=O)N[C@@H](CCC(=O)N[C@@H](CCC(=O)N[C@@H](CCC(=O)N[C@@H](CCC(=O)O)C(=O)O)C(=O)O)C(=O)O)C(=O)O)cc2)c1 [Compound 8] | 21.4 | 20.7 | 36.8 | 51.1 | 28.2 | 44.5 | 90.2 | > 100 | 36.9 | 0.1 | 95.9 | 42.7 | 39.6 | 45.3 | > 100 | 23.6 | > 100 | 64.9 | 37.2 | 12.4 | difference of IC50 value versus Linifanib (KASUMI-1): 10 times; IC50 (LC-2-ad): 50.2 µM; IC50 (22RV1): > 100 µM; IC50 (NCl-H1703): 0.08 µM; difference of IC50 value versus Linifanib (NCl-H1703; NCI-H1703 (lung cancer cells)): 4 times; IC50 (K562): > 100 µM
Cc1ccc(F)c(NC(=O)Nc2ccc(-c3cccc4c3c(N)nn4C(=O)CCCCCNC(=O)C[C@H](N)C(=O)N[C@@H](CCC(=O)O)C(=O)O)cc2)c1 [Compound 4] | 19 | 45.9 | 47.5 | > 100 | 53.8 | 71.4 | > 100 | > 100 | > 100 | 1.71 | 42.5 | > 100 | 47.2 | > 100 | > 100 | 60 | 97.2 | 73.8 | 94.5 | 33.9 | IC50 (LC-2-ad): 36.9 µM; IC50 (22RV1): > 100 µM; IC50 (NCl-H1703): 1.59 µM; IC50 (K562): 44.2 µM
